{
  "source": "patent US9988371B2",
  "about": "“Benzimidazole analogues and related methods” (The Arizona Board of Regents, on Behalf of the University …, priority 2014, dated 2018)",
  "key": {"[1]": {"system": "TT cells (MTC, RET/C634W)", "experiment": "Growth curve proliferation assay, TT cells", "assay_type": "cell-based", "conditions": "Homo sapiens, last day of growth curves", "method": "FIG. 5: Effects exerted by indicated concentrations of Pz-1 or vehicle (NT: not treated) on proliferation of TT (human MTC cell line expressing RET/C634W), Lc-2/ad (human NSCLC expressing CCDC6-RET) and Nthy-ori-3-1 (thyroid non-transformed) cell lines. Data are the mean±SD (Standard Deviation) of one experiment performed in triplicate. Bottom, right) Growth inhibition IC50 of Pz-1 for the different cell lines: 95% CI (confidence intervals) are indicated in brackets. Cells were seeded in triplicate in 60-mm dishes and kept in 5% (Nthy-ori-3-1) or 10% (TT and Lc-2/ad) fetal calf serum. The day after plating, different concentrations of Pz-1 or vehicle were added to the medium and changed every 2-3 days. Cells were counted every 2-3 days and cell numbers were reported±SD (Standard Deviation). IC50 doses (with Confidence Intervals) were calculated through a curve fitting analysis from the last day of growth curves using the PRIZM software program (Graphpad Software Inc).\nNthy-ory-3-1 and TTcells were seeded in 60-mm dishes. […] Cells were counted every 2-3 days. […] Parental and RET/PTC-expressing Ba/F3 were kept in 10% fetal calf serum in 6-multi wells and counted every day for 4 consecutive days, changing media every 2 days. […] IC50 doses were calculated through a curve fitting analysis from the last day of growth curves using the PRISM software program (Graphpad Software Inc). […]"}, "VEGFR2": {"molecular_target": "T1, VEGFR2 (Mus musculus, UniProt P35918)", "T1 construct": "from tissue; host or cells: subcutaneous tumours (NIH3T3 RET/C634Y or NIH3T3 HRAS/G12V) in BALB/c nu/nu mice", "T1 sequence (P35918 20-1345)": "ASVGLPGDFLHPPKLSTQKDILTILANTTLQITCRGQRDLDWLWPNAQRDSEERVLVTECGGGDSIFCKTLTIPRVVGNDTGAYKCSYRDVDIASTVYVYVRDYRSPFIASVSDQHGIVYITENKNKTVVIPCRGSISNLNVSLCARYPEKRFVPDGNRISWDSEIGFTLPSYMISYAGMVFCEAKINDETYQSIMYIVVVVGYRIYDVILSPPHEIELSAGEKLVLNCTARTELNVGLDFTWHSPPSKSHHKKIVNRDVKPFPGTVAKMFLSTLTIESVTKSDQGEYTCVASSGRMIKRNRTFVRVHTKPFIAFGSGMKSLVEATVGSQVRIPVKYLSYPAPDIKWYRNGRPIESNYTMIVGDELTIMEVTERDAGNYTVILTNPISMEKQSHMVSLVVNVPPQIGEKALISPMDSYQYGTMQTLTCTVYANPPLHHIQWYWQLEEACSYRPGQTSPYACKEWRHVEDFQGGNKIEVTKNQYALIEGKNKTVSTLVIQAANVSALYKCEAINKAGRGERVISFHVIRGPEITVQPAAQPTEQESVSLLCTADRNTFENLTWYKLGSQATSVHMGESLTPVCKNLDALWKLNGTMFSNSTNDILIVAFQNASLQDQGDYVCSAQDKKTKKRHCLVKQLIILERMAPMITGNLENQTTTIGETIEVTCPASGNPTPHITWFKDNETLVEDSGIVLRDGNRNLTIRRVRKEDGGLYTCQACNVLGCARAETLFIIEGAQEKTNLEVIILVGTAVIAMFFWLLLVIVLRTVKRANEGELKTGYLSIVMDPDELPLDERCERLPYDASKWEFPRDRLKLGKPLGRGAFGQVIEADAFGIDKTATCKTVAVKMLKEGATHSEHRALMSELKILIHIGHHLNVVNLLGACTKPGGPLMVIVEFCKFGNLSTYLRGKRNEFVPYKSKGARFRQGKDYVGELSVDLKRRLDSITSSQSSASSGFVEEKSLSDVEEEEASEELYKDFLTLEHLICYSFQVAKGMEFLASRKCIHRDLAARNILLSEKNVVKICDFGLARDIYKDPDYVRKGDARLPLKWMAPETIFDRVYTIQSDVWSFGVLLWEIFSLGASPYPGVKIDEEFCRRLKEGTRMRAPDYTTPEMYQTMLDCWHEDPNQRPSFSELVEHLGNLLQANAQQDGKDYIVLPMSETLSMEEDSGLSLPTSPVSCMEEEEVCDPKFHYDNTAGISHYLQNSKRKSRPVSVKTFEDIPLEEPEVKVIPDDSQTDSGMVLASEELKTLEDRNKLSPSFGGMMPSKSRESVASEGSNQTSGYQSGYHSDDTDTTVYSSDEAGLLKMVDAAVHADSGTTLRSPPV", "experiment": "In vivo target inhibition, pVEGFR2 in HRAS/G12V-induced tumors", "design": "species or system nude mice", "conditions": "48 hr, 1.0 or 3.0 mg/kg daily", "method": "FIG. 9: Photographs of blots showing effects of Pz-1 on cellular phosphorylation events in tumors induced in nude mice (from FIG. 8) by injection of NIH3T3 fibroblasts transformed by RET/C634Y or HRAS/G12V. […] Some of the vehicle-treated tumors, at the end of the tumor growth experiment described in FIG. 8, were treated for 48 hr with different doses of Pz-1 (TR) or left untreated (NT). At the end of the treatment, 50 μg of tumor protein lysates were subjected to immunoblotting with anti-phospho-Y1062 (αp1062) and anti-phospho-905 (αpY905) RET antibodies, anti-phospho-MAPK (αpMAPK, T302/Y304), anti-phospho-SHC (αpSHC, Y317), anti-phospho-p70S6K (αpp70S6K, T389), anti-phospho-S6RP (αpS6RP, S235/S236), and anti-phospho-VEGFR2 (αpVEGFR2 pY1175) antibodies. The blots were normalized using anti-RET (αRET), anti-SHC (αSHC), anti-MAPK (αMAPK), anti-p70S6K (αp70S6K), anti-S6RP (αS6RP) or anti-VEGFR2 (αVEGFR2) antibodies.\nSome of the vehicle-treated tumors, at the end of the tumor growth experiment reported in FIG. 8, were treated for 48 hr with different doses of Pz-1 (1.0 or 3.0 mg/kg daily) or left untreated. […]"}, "[2]": {"experiment": "week-long toxicology study in mice", "assay_type": "in vivo", "method": "For PK studies of Pz-1 in animals, a solution formulation for oral administration was created in 500 μL of polysorbate 80, 500 μL of EtOH, and 1.0 mL of pH 2 buffer. For the toxicity studies, a suspension formulation was developed in tween 20 (20%) and xanthan gum (0.125%).\nSimilarly, the toxicity markers including phosphorus, creatinine, total bilirubin, GGT, ALP, glucose, total protein, albumin, globulin, calcium, cholesterol, and BUN were not impacted at any dose. […] At the highest dose, the concentration of ALT was slightly above the normal ALT level of 80 U/L, but below the toxicity threshold of 200 U/L. ALT levels can easily be monitored and can serve as a reversible toxicity marker in the clinical setting."}},
  "data": [
    {"smiles": "Cn1cc(-c2ccc3c(c2)ncn3-c2ccc(CC(=O)Nc3cc(C(C)(C)C)on3)cc2)cn1", "note": "[Pz-1, N-(5-(tert-butyl)isoxazol-3-yl)-2-(4-(5-(1-methyl-1H-pyrazol-4-yl)-1H-benzo[d]imidazol-1-yl)phenyl)acetamide]", "values": [
      {"measurement": "IC50", "setting": "[1]", "result": 1.86, "unit": "nM"},
      {"measurement": "pVEGFR2 in tumors", "setting": "VEGFR2", "result": "inhibited"},
      {"measurement": "ALT in blood", "setting": "[2]; 10 mg/kg", "result": 22, "unit": "U/L"},
      {"measurement": "ALT in blood", "setting": "[2]; 30 mg/kg", "result": 51, "unit": "U/L"},
      {"measurement": "ALT in blood", "setting": "[2]; 100 mg/kg", "result": 96, "unit": "U/L"},
      {"measurement": "toxicity markers (phosphorus, creatinine, total bilirubin, GGT, ALP, glucose, total protein, albumin, globulin, calcium, cholesterol, BUN)", "setting": "[2]; any dose", "result": "not impacted"},
      {"measurement": "organ pathological analysis in heart, kidney, and liver", "setting": "[2]; even at 100 mg/kg", "result": "did not show adverse effects"},
      {"measurement": "toxicity", "setting": "[2]; one week, daily dose escalation from 10 mg/kg to 100 mg/kg, suspension formulation", "result": "no significant toxicity"}
    ]}
  ]
}
